Experimental data as given in patent publication US20250108038A1 (priority 2023, published 2025).
Values joined by “and” are separate entries in the source; they are usually repeats but may differ in a detail not shown here. Equal values may be shown once.

Tested on: Long Evans rats
Assay: Behavioral satiety sequence (BSS)
Format: in vivo, Long Evans rat
Text: The Behavioural Satiety Sequence (BSS) is a technique used to evaluate physiological satiety. It is based on the expression of a sequence of behaviors including eating, grooming, locomotor activity, followed by resting, which are typically observed in rodents post-ingestion (Halford et al, 1998, Pharmacology Biochemistry and Behaviour. 61(2): 159-168). The BSS is a widely used model for determining the effects of novel pharmaceuticals on food intake and measures of satiety in rodents (Oliveira et al, 2011, Revista de Nutrição. 24(4) 619-628), and to discriminate the cause of reduced food intake following pharmacological manipulation. For example, treatments that may reduce food intake by non-specific mechanisms, such as immobility, malaise, and taste adulteration, will disrupt this sequence (Halford et al, 1998, Pharmacology Biochemistry and Behaviour. 61(2): 159-168).
Specifically, 12 male Long-Evans rats were food-deprived for 22 h with a 2 h feeding period each day. Rats were trained to consume daily food during the 2 h period over 25 days. The testing phase was initiated once the rats consistently consumed 16-18 g of food per day with ≤10% variance in amount of feed consumed. Feeding took place in designated individual boxes in a quiet room separate from the housing room. Continuous remote monitoring via video camera during feeding was used to assess the BSS. Food consumption was measured by weighing the total available food before and after the 2 h feeding window, correcting for spillage. Lorcaserin (1 mg/kg) was included as a reference control (Higgins et al, 2011, Neuropsychopharmacology. 37(5): 1177-1191). Subjects were tested using a repeated-measures, Latin square design with 2-3 days wash-out between treatment cycles.
On scheduled test days, animals were monitored remotely via video camera during the feeding access period. The occurrence of four mutually exclusive behaviors (eating/drinking, grooming, active, rest) were individually scored. Over the 2 h feeding period, behaviors were assessed every 30 seconds. Scores were compiled into 23 5 min timebins (timebin 24 was removed due to early removal of animals) and the frequency of each behavior within each timebin was calculated to determine a temporal frequency of each measure (Rodgers et al, 2010, Pharmacology Biochemistry and Behaviour. 97: 3-14). Percentage time was plotted for each behavioral sequence in each timebin to compare between treatment groups (Higgins et al, 2011, Neuropsychopharmacology. 37(5): 1177-1191).

[1] = Compound I-19 0.1 mg/kg, AVG of animals LT-1 to LT-12, 0-0.5 hours
[2] = Compound I-19 0.1 mg/kg, raw data per animal LT-1 to LT-12, 0-0.5 hours
[3] = Compound I-19 0.1 mg/kg, raw score per animal (LT-1 to LT-12)
[4] = Compound I-19 0.3 mg/kg, AVG of animals LT-1 to LT-12

Clc1ccc(C2(OCC3OCCO3)c3ccccc3C3=NCCN32)cc1 (stereo not drawn) [Compound I-19]
BSS scoring E (eating/drinking), Time Bin 4 (15-20 TOTAL), AVG [1]: 0.87
BSS scoring E (eating/drinking), Time Bin 5 (20-25 TOTAL), AVG [1]: 0.89
BSS scoring E (eating/drinking), Time Bin 6 (25-30 TOTAL), AVG [1]: 0.81
BSS scoring G (grooming), Time Bin 1 (0-5 TOTAL), AVG [1]: 0.02
BSS scoring G (grooming), Time Bin 2 (5-10 TOTAL), AVG [1]: 0.00
BSS scoring G (grooming), Time Bin 3 (10-15 TOTAL), AVG [1]: 0.03
BSS scoring G (grooming), Time Bin 4 (15-20 TOTAL), AVG [1]: 0.03
BSS scoring G (grooming), Time Bin 5 (20-25 TOTAL), AVG [1]: 0.00
BSS scoring G (grooming), Time Bin 6 (25-30 TOTAL), AVG [1]: 0.04
BSS scoring R (resting), Time Bin 1 (0-5 TOTAL), AVG [1]: 0.00
BSS scoring R (resting), Time Bin 2 (5-10 TOTAL), AVG [1]: 0.00
BSS scoring R (resting), Time Bin 3 (10-15 TOTAL), AVG [1]: 0.00
BSS scoring R (resting), Time Bin 4 (15-20 TOTAL), AVG [1]: 0.02
BSS scoring R (resting), Time Bin 5 (20-25 TOTAL), AVG [1]: 0.03
BSS scoring R (resting), Time Bin 6 (25-30 TOTAL), AVG [1]: 0.02
BSS scoring A (active), Time Bin 1 (0-5 TOTAL) [2]: 0 (3×) and 1 (7×) and 2 (2×)
BSS scoring A (active), Time Bin 2 (5-10 TOTAL) [2]: 1 (5×) and 0 (7×)
BSS scoring A (active), Time Bin 3 (10-15 TOTAL) [2]: 1 (3×) and 0 (9×)
BSS scoring A (active), Time Bin 4 (15-20 TOTAL) [2]: 5 and 0 (8×) and 4 and 1 (2×)
BSS scoring A (active), Time Bin 5 (20-25 TOTAL) [2]: 1 (3×) and 0 (7×) and 3 (2×)
BSS scoring A (active), Time Bin 6 (25-30 TOTAL) [2]: 3 (2×) and 1 (6×) and 0 (3×) and 4
BSS scoring E (eating/drinking), Time Bin 1 (0-5 TOTAL) [2]: 10 (3×) and 8 (4×) and 9 (5×)
BSS scoring E (eating/drinking), Time Bin 2 (5-10 TOTAL) [2]: 9 (5×) and 10 (7×)
BSS scoring E (eating/drinking), Time Bin 3 (10-15 TOTAL) [2]: 9 (6×) and 10 (6×)
BSS scoring E (eating/drinking), Time Bin 4 (15-20 TOTAL) [2]: 5 and 10 (5×) and 9 (5×) and 4
BSS scoring E (eating/drinking), Time Bin 5 (20-25 TOTAL) [2]: 9 (3×) and 10 (6×) and 6 and 7 (2×)
BSS scoring E (eating/drinking), Time Bin 6 (25-30 TOTAL) [2]: 5 (2×) and 8 (4×) and 9 (2×) and 10 (3×) and 7
BSS scoring G (grooming), Time Bin 1 (0-5 TOTAL) [2]: 0 (10×) and 1 (2×)
BSS scoring G (grooming), Time Bin 2 (5-10 TOTAL) [2]: 0
BSS scoring G (grooming), Time Bin 3 (10-15 TOTAL) [2]: 0 (9×) and 1 (3×)
BSS scoring G (grooming), Time Bin 4 (15-20 TOTAL) [2]: 0 (9×) and 1 (3×)
BSS scoring G (grooming), Time Bin 5 (20-25 TOTAL) [2]: 0
BSS scoring G (grooming), Time Bin 6 (25-30 TOTAL) [2]: 0 (7×) and 1 (5×)
BSS scoring R (resting), Time Bin 1 (0-5 TOTAL) [2]: 0
BSS scoring R (resting), Time Bin 2 (5-10 TOTAL) [2]: 0
BSS scoring R (resting), Time Bin 3 (10-15 TOTAL) [2]: 0
BSS scoring R (resting), Time Bin 4 (15-20 TOTAL) [2]: 0 (10×) and 1 (2×)
BSS scoring R (resting), Time Bin 5 (20-25 TOTAL) [2]: 0 (9×) and 1 (2×) and 2
BSS scoring R (resting), Time Bin 6 (25-30 TOTAL) [2]: 2 and 0 (11×)
BSS scoring A (active), Time Bin 19 (90-95 TOTAL) [3]: 8 and 2 (6×) and 5 and 1 and 7 and 0 and 3
BSS scoring A (active), Time Bin 20 (95-100 TOTAL) [3]: 1 (4×) and 0 (4×) and 2 (3×) and 6
BSS scoring A (active), Time Bin 21 (100-105 TOTAL) [3]: 0 (8×) and 3 and 1 and 4 and 2
BSS scoring A (active), Time Bin 22 (105-110 TOTAL) [3]: 0 (6×) and 4 and 1 (2×) and 2 and 5 and 3
BSS scoring A (active), Time Bin 23 (110-115 TOTAL) [3]: 1 and 0 (5×) and 4 and 2 (2×) and 8 and 5 and 3
BSS scoring A (active), Time Bin 24 (115-120 TOTAL) [3]: 0 (5×) and 4 and 1 (2×) and 2 (2×) and 3 and 6
BSS scoring E (eating/drinking), Time Bin 19 (90-95 TOTAL) [3]: 2 and 4 (3×) and 6 and 0 and 7 (3×) and 3 and 10 and 8
BSS scoring E (eating/drinking), Time Bin 20 (95-100 TOTAL) [3]: 9 and 5 and 10 (3×) and 7 (2×) and 0 and 8 and 6 (2×) and 3
BSS scoring E (eating/drinking), Time Bin 21 (100-105 TOTAL) [3]: 10 (3×) and 3 and 9 (3×) and 0 and 8 (2×) and 5 and 6
BSS scoring E (eating/drinking), Time Bin 22 (105-110 TOTAL) [3]: 10 (2×) and 3 and 9 (2×) and 0 and 6 (2×) and 8 (3×) and 4
BSS scoring E (eating/drinking), Time Bin 23 (110-115 TOTAL) [3]: 9 (5×) and 10 and 3 (2×) and 0 and 4 and 5 and 7
BSS scoring E (eating/drinking), Time Bin 24 (115-120 TOTAL) [3]: 10 (2×) and 5 and 8 (3×) and 2 and 0 (2×) and 6 and 1 and 4
BSS scoring G (grooming), Time Bin 19 (90-95 TOTAL) [3]: 0 (8×) and 1 (4×)
BSS scoring G (grooming), Time Bin 20 (95-100 TOTAL) [3]: 0 (8×) and 2 (2×) and 1 (2×)
BSS scoring G (grooming), Time Bin 21 (100-105 TOTAL) [3]: 0 (8×) and 1 (3×) and 2
BSS scoring G (grooming), Time Bin 22 (105-110 TOTAL) [3]: 0 (8×) and 2 and 1 (3×)
BSS scoring G (grooming), Time Bin 23 (110-115 TOTAL) [3]: 0 (8×) and 1 (4×)
BSS scoring G (grooming), Time Bin 24 (115-120 TOTAL) [3]: 0 (9×) and 1 (2×) and 2
BSS scoring R (resting), Time Bin 19 (90-95 TOTAL) [3]: 0 (7×) and 4 and 1 (2×) and 9 and 3
BSS scoring R (resting), Time Bin 20 (95-100 TOTAL) [3]: 0 (6×) and 2 (2×) and 10 and 1 (3×)
BSS scoring R (resting), Time Bin 21 (100-105 TOTAL) [3]: 0 (7×) and 4 and 1 (2×) and 10 and 2
BSS scoring R (resting), Time Bin 22 (105-110 TOTAL) [3]: 0 (4×) and 1 (5×) and 8 and 3 and 2
BSS scoring R (resting), Time Bin 23 (110-115 TOTAL) [3]: 0 (3×) and 2 (2×) and 1 (6×) and 4
BSS scoring R (resting), Time Bin 24 (115-120 TOTAL) [3]: 0 (8×) and 1 (2×) and 8 and 5
BSS scoring A (active), Time Bin 19 (90-95 TOTAL), AVG [4]: 0.21
BSS scoring A (active), Time Bin 20 (95-100 TOTAL), AVG [4]: 0.17
BSS scoring A (active), Time Bin 21 (100-105 TOTAL), AVG [4]: 0.06
BSS scoring A (active), Time Bin 22 (105-110 TOTAL), AVG [4]: 0.08
BSS scoring A (active), Time Bin 23 (110-115 TOTAL), AVG [4]: 0.28
BSS scoring A (active), Time Bin 24 (115-120 TOTAL), AVG [4]: 0.14
BSS scoring E (eating/drinking), Time Bin 19 (90-95 TOTAL), AVG [4]: 0.63
BSS scoring E (eating/drinking), Time Bin 20 (95-100 TOTAL), AVG [4]: 0.69
BSS scoring E (eating/drinking), Time Bin 21 (100-105 TOTAL), AVG [4]: 0.73
BSS scoring E (eating/drinking), Time Bin 22 (105-110 TOTAL), AVG [4]: 0.69
BSS scoring E (eating/drinking), Time Bin 23 (110-115 TOTAL), AVG [4]: 0.52
BSS scoring E (eating/drinking), Time Bin 24 (115-120 TOTAL), AVG [4]: 0.44
